This note sets out measurements from US20210063414A1, “METHODS FOR PREVENTING AND/OR TREATING BONE LOSS CONDITIONS BY MODULATING IRISIN” (Dana-Farber Cancer Institute, Inc., priority 2018, published 2021).

This test concerns his-tag integrins. The test can be described thus: Irisin-integrin binding in presence of RGDS or control peptide, co-immunoprecipitation. More on the design: species or system human. As to conditions: 100 nM flag-tag irisin, 5 nM his-tag integrins, 10 uM peptide, vs control RGD peptide. On the procedure:
100 nM flag-tag irisin was incubated with 5 nM of indicated integrins with his-tag in the presence of RGDS peptide or its control peptide (10 uM). This was followed by immunoprecipitation using anti-his-tag agarose. Co-precipitated irisin was analyzed by immunoblot analysis with antibody against flag tag.
Certain materials and methods were used to generate the results described herein. For example, the data shown in FIG. 1A resulted from MLO-Y4 (an osteocyte-like cell line) cells treated with the indicated concentration of irisin and hydrogen peroxide for 4 hours. Cells were stained with Hoechst 33342 (ThermoFisher Scientific, catalog number H3570) and Eth-D1 (ThermoFisher Scientific, catalog number E1169) and analyzed to determine the percentage of cell death using ImageJ. […] Co-precipitated irisin was analyzed by immunoblot analysis against flag tag (Sigma Aldrich, catalog number A8592). The data shown in FIGS. 5A and 5B were generated from MLO-Y4 cells treated and analyzed as in the experiments used to generate the data shown in FIG. 2D, except that pre-treatment of 100 nM RGDS (FIG. 5A) or echistatin (R & D Systems Inc., catalog number 3202/100U) (FIG. 5B) for 10 minutes was performed before irisin treatment. […] Sclerostin mRNA level was analyzed by qPCR (FIG. 7A). […]

As for “RGDS peptide: classical integrin competitive inhibitory peptide, commercially available form of the RGD peptide”, the “effect on irisin binding to integrins” value is “inhibited much of the irisin binding”. Also, the “effect on irisin binding to integrins” value (listed as RGDS) is reported as “blocked”.
